In US9617244B2, “Antibacterial quinoline derivatives” (JANSSEN PHARMACEUTICA NV, priority 2012, dated 2017):
In brackets after ≈: the same amount, converted by molar mass.

Tested on: Staphylococcus aureus (ATCC29213)
Assay: In-vitro anti-bacterial activity, microtitre plate assay, IC90 determination (non-mycobacterial strains)
Assay type: cell-based
Conditions: 90% inhibitory concentration for bacterial growth, 24 hours, resazurin fluorescence
How it was run: (§1)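 Inoculum of about 100 TCID50 (10–60 CFU/well) in Mueller-Hinton broth, serial five-fold compound dilutions, 24 h at 37 °C in air. Growth read by resazurin fluorescence (ex 530/em 590 nm); IC90 in μg/ml as 90% growth inhibition.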

Row | SMILES | IC90 STA B29213
1 | COc1nc2ccc(Cl)cc2cc1C(c1ccc(Cl)cc1)C1(O)CCNCC1F (stereo not drawn) [Compound 452] | 9.75 µg/mL (≈ 22.4 µM)
2 | COc1nc2ccc(Cl)cc2cc1C(c1ccc(Cl)cc1)C1(O)CCNCC1F (stereo not drawn) [Compound 454] | 10.94 µg/mL (≈ 25.1 µM)
3 | COc1nc2ccc(Cl)cc2cc1C(c1ccc(Cl)cc1)C1(O)CCNCC1F (stereo not drawn) [Compound 455] | 7.74 µg/mL (≈ 17.8 µM)
4 | COc1nc2ccc(Cl)cc2cc1C(c1ccc(Cl)cc1)C1(O)CCNCC1F (stereo not drawn) [Compound 456] | 10.94 µg/mL (≈ 25.1 µM)
5 | COc1nc2ccc(S(C)(=O)=O)cc2cc1C(c1ccc(Cl)cc1)C1(O)CCNC(c2ccc3ccccc3c2)C1 (stereo not drawn) [Compound 459] | 13.14 µg/mL (≈ 22.4 µM)
6 | COc1nc2ccc(S(C)(=O)=O)cc2cc1C(c1ccc(Cl)cc1)C1(O)CCNC(c2ccc3ccccc3c2)C1 (stereo not drawn) [Compound 460] | 3.70 µg/mL (≈ 6.3 µM)
7 | COc1nc2ccc(S(C)(=O)=O)cc2cc1C(c1ccc(Cl)cc1)C1(O)CCNC(c2ccc3ccccc3c2)C1 (stereo not drawn) [Compound 461] | 2.62 µg/mL (≈ 4.46 µM)
8 | COc1nc2ccc(S(C)(=O)=O)cc2cc1C(c1ccc(Cl)cc1)C1(O)CCNC(c2ccc3ccccc3c2)C1 (stereo not drawn) [Compound 462] | 1.86 µg/mL (≈ 3.17 µM)
9 | COc1nc2ccc(S(C)(=O)=O)cc2cc1C(c1ccc(Cl)cc1)C1(O)CCNC(c2ccc3ccccc3c2)C1 (stereo not drawn) [Compound 463] | 14.75 µg/mL (≈ 25.1 µM)
10 | COc1nc2ccc(S(C)(=O)=O)cc2cc1C(c1ccc(Cl)cc1)C1(O)CCNC(c2ccc3ccccc3c2)C1 (stereo not drawn) [Compound 464] | 1.47 µg/mL (≈ 2.5 µM)
11 | COc1nc2ccc(S(C)(=O)=O)cc2cc1C(c1ccc(Cl)cc1)C1(O)CCNC(c2ccc3ccccc3c2)C1 (stereo not drawn) [Compound 465] | 5.87 µg/mL (≈ 10 µM)
12 | COc1nc2ccc(S(C)(=O)=O)cc2cc1C(c1ccc(Cl)cc1)C1(O)CCNC(c2ccc3ccccc3c2)C1 (stereo not drawn) [Compound 466] | 3.70 µg/mL (≈ 6.3 µM)

Same assay, conditions: Staphylococcus aureus, ATCC29213, 24 h, 90% inhibitory concentration for bacterial growth, resazurin fluorescence, read-out: IC90 STA B29213

Row | SMILES | IC90
13 | COc1nc2ccc(Br)cc2cc1C(c1cccc(Cl)c1)C1(O)CCNC(Cc2ccccc2)C1 (stereo not drawn) [Compound 35] | 2.76 µg/mL (≈ 5 µM)
14 | O=c1[nH]c2ccc(Br)cc2cc1C(c1ccc(Cl)cc1)C1(O)CCNC(Cc2ccc(F)c(F)c2)C1 (stereo not drawn) [Compound 40] | 3.42 µg/mL (≈ 5.96 µM)
15 | C=CCC1CNCCC1(O)C(c1ccc(Cl)cc1)c1cc2cc(Br)ccc2nc1OC (stereo not drawn) [Compound 392] | 6.32 µg/mL (≈ 12.6 µM)
16 | COc1nc2ccc(S(C)(=O)=O)cc2cc1C(c1ccc(Cl)cc1)C1(O)CCNCC1(C)C (stereo not drawn) [Compound 397] | > 12.3 µg/mL
17 | COc1nc2ccc(F)cc2cc1C(c1ccc(SC)cc1)C1(O)CCNC(c2ccc(F)cc2C)C1 (stereo not drawn) [Compound 406] | 3.29 µg/mL (≈ 6.32 µM)
18 | COc1nc2ccc(F)cc2cc1C(c1ccc(S(C)(=O)=O)cc1)C1(O)CCNC(c2ccc(F)cc2C)C1 (stereo not drawn) [Compound 417] | > 13.9 µg/mL
19 | COc1nc2ccc(Br)cc2cc1C(c1ccccc1)C1(O)CCNCC1C (stereo not drawn) [Compound 425] | > 11.1 µg/mL
20 | COc1nc2ccc(Cl)cc2cc1C(c1ccc(Cl)cc1)C1(O)CCNC(CO)C1 (stereo not drawn) [Compound 435] | 5.63 µg/mL (≈ 12.6 µM)
21 | COc1nc2ccc(Cl)cc2cc1C(c1ccc(Cl)cc1)C1(O)CCNCC1F (stereo not drawn) [Compound 453] | 5.48 µg/mL (≈ 12.6 µM)
22 | COc1nc2ccc(Cl)cc2cc1C(c1ccc(Cl)cc1)C1(O)CCNC(Cc2cccnc2)C1 (stereo not drawn) [Compound 467] | 3.21 µg/mL (≈ 6.31 µM)

Tested on: Streptococcus pneumoniae (ATCC6305)
Assay: as above
Assay type: cell-based
Conditions: Streptococcus pneumoniae, ATCC6305, 24 h, 90% inhibitory concentration for bacterial growth, resazurin fluorescence, read-out: IC90 SPN 6305
How it was run: as §1

Row | SMILES | IC90
23 | COc1nc2ccc(Br)cc2cc1C(c1cccc(Cl)c1)C1(O)CCNC(Cc2ccccc2)C1 (stereo not drawn) [Compound 35] | 4.37 µg/mL (≈ 7.92 µM)
24 | O=c1[nH]c2ccc(Br)cc2cc1C(c1ccc(Cl)cc1)C1(O)CCNC(Cc2ccc(F)c(F)c2)C1 (stereo not drawn) [Compound 40] | 6.83 µg/mL (≈ 11.9 µM)

Tested on: Mycobacterium smegmatis (ATCC607)
Assay: In-vitro anti-bacterial activity against strain M. Smegmatis ATCC607
Assay type: cell-based
Conditions: 90% inhibitory concentration for bacterial growth, 48 hours, Alamar Blue fluorescence
How it was run: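 Serial five-fold compound dilutions in BSA-supplemented wells, inoculated with ~250 CFU/well in Mueller-Hinton broth, incubated 48 h at 37 °C, 5% CO2. Growth read by Alamar Blue fluorescence (ex 530/em 590 nm); IC90 in μg/ml.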

Row | SMILES | IC90 MSM 607
25 | COc1nc2ccc(F)cc2cc1C(c1ccc(SC)cc1)C1(O)CCNC(c2ccc(F)cc2C)C1 (stereo not drawn) [Compound 406] | 2.61 µg/mL (≈ 5.01 µM)
26 | COc1nc2ccc(Cl)cc2cc1C(c1ccc(Cl)cc1)C1(O)CCNCC1F (stereo not drawn) [Compound 452] | 4.35 µg/mL (≈ 9.99 µM)
27 | COc1nc2ccc(Cl)cc2cc1C(c1ccc(Cl)cc1)C1(O)CCNCC1F (stereo not drawn) [Compound 453] | 2.75 µg/mL (≈ 6.32 µM)
28 | COc1nc2ccc(Cl)cc2cc1C(c1ccc(Cl)cc1)C1(O)CCNCC1F (stereo not drawn) [Compound 454] | 4.35 µg/mL (≈ 9.99 µM)
29 | COc1nc2ccc(Cl)cc2cc1C(c1ccc(Cl)cc1)C1(O)CCNCC1F (stereo not drawn) [Compound 455] | 5.48 µg/mL (≈ 12.6 µM)
30 | COc1nc2ccc(Cl)cc2cc1C(c1ccc(Cl)cc1)C1(O)CCNCC1F (stereo not drawn) [Compound 456] | 10.94 µg/mL (≈ 25.1 µM)
31 | COc1nc2ccc(S(C)(=O)=O)cc2cc1C(c1ccc(Cl)cc1)C1(O)CCNC(c2ccc3ccccc3c2)C1 (stereo not drawn) [Compound 459] | 3.70 µg/mL (≈ 6.3 µM)
32 | COc1nc2ccc(S(C)(=O)=O)cc2cc1C(c1ccc(Cl)cc1)C1(O)CCNC(c2ccc3ccccc3c2)C1 (stereo not drawn) [Compound 460] | 1.86 µg/mL (≈ 3.17 µM)
33 | COc1nc2ccc(S(C)(=O)=O)cc2cc1C(c1ccc(Cl)cc1)C1(O)CCNC(c2ccc3ccccc3c2)C1 (stereo not drawn) [Compound 461] | 1.47 µg/mL (≈ 2.5 µM)
34 | COc1nc2ccc(S(C)(=O)=O)cc2cc1C(c1ccc(Cl)cc1)C1(O)CCNC(c2ccc3ccccc3c2)C1 (stereo not drawn) [Compound 462] | 0.93 µg/mL (≈ 1.58 µM)
35 | COc1nc2ccc(S(C)(=O)=O)cc2cc1C(c1ccc(Cl)cc1)C1(O)CCNC(c2ccc3ccccc3c2)C1 (stereo not drawn) [Compound 463] | 2.34 µg/mL (≈ 3.99 µM)
36 | COc1nc2ccc(S(C)(=O)=O)cc2cc1C(c1ccc(Cl)cc1)C1(O)CCNC(c2ccc3ccccc3c2)C1 (stereo not drawn) [Compound 464] | 1.17 µg/mL (≈ 1.99 µM)
37 | COc1nc2ccc(S(C)(=O)=O)cc2cc1C(c1ccc(Cl)cc1)C1(O)CCNC(c2ccc3ccccc3c2)C1 (stereo not drawn) [Compound 465] | 2.62 µg/mL (≈ 4.46 µM)
38 | COc1nc2ccc(S(C)(=O)=O)cc2cc1C(c1ccc(Cl)cc1)C1(O)CCNC(c2ccc3ccccc3c2)C1 (stereo not drawn) [Compound 466] | 1.47 µg/mL (≈ 2.5 µM)

Same assay, conditions: Mycolicibacterium smegmatis, ATCC607, 48 h, 90% inhibitory concentration for bacterial growth, Alamar Blue fluorescence, read-out: IC90 MSM 607

Row | SMILES | IC90
39 | COc1nc2ccc(Br)cc2cc1C(c1cccc(Cl)c1)C1(O)CCNC(Cc2ccccc2)C1 (stereo not drawn) [Compound 35] | 2.19 µg/mL (≈ 3.97 µM)
40 | O=c1[nH]c2ccc(Br)cc2cc1C(c1ccc(Cl)cc1)C1(O)CCNC(Cc2ccc(F)c(F)c2)C1 (stereo not drawn) [Compound 40] | 1.93 µg/mL (≈ 3.36 µM)
41 | C=CCC1CNCCC1(O)C(c1ccc(Cl)cc1)c1cc2cc(Br)ccc2nc1OC (stereo not drawn) [Compound 392] | 3.17 µg/mL (≈ 6.32 µM)
42 | COc1nc2ccc(S(C)(=O)=O)cc2cc1C(c1ccc(Cl)cc1)C1(O)CCNCC1(C)C (stereo not drawn) [Compound 397] | > 12.3 µg/mL
43 | COc1nc2ccc(F)cc2cc1C(c1ccc(S(C)(=O)=O)cc1)C1(O)CCNC(c2ccc(F)cc2C)C1 (stereo not drawn) [Compound 417] | > 13.9 µg/mL
44 | COc1nc2ccc(Br)cc2cc1C(c1ccccc1)C1(O)CCNCC1C (stereo not drawn) [Compound 425] | > 11.1 µg/mL
45 | COc1nc2ccc(Cl)cc2cc1C(c1ccc(Cl)cc1)C1(O)CCNC(CO)C1 (stereo not drawn) [Compound 435] | 3.99 µg/mL (≈ 8.92 µM)
46 | COc1nc2ccc(Cl)cc2cc1C(c1ccc(Cl)cc1)C1(O)CCNC(Cc2cccnc2)C1 (stereo not drawn) [Compound 467] | 2.55 µg/mL (≈ 5.02 µM)

Tested on: not given
Assay: not given
Conditions: not given

Row | SMILES | melting point
47 | C=CCC1CNCCC1(O)C(c1ccc(Cl)cc1)c1cc2cc(Br)ccc2nc1OC (stereo not drawn) [Compound 392] | 162 to 164 °C
48 | COc1nc2ccc(S(C)(=O)=O)cc2cc1C(c1ccc(Cl)cc1)C1(O)CCNCC1(C)C (stereo not drawn) [Compound 397] | 180 °C
49 | COc1nc2ccc(F)cc2cc1C(c1ccc(SC)cc1)C1(O)CCNC(c2ccc(F)cc2C)C1 (stereo not drawn) [Compound 406] | 206 °C
50 | COc1nc2ccc(F)cc2cc1C(c1ccc(S(C)(=O)=O)cc1)C1(O)CCNC(c2ccc(F)cc2C)C1 (stereo not drawn) [Compound 417] | 150 °C
51 | COc1nc2ccc(Br)cc2cc1C(c1ccccc1)C1(O)CCNCC1C (stereo not drawn) [Compound 425] | 125 °C
52 | COc1nc2ccc(Cl)cc2cc1C(c1ccc(Cl)cc1)C1(O)CCNC(CO)C1 (stereo not drawn) [Compound 435] | 140 °C
53 | COc1nc2ccc(Cl)cc2cc1C(c1ccc(Cl)cc1)C1(O)CCNCC1F (stereo not drawn) [Compound 452] | 114 °C
54 | COc1nc2ccc(Cl)cc2cc1C(c1ccc(Cl)cc1)C1(O)CCNCC1F (stereo not drawn) [Compound 453] | 210 °C
55 | COc1nc2ccc(Cl)cc2cc1C(c1ccc(Cl)cc1)C1(O)CCNCC1F (stereo not drawn) [Compound 454] | 186 °C
56 | COc1nc2ccc(Cl)cc2cc1C(c1ccc(Cl)cc1)C1(O)CCNCC1F (stereo not drawn) [Compound 455] | 118 °C
57 | COc1nc2ccc(Cl)cc2cc1C(c1ccc(Cl)cc1)C1(O)CCNCC1F (stereo not drawn) [Compound 456] | 115 °C
58 | COc1nc2ccc(S(C)(=O)=O)cc2cc1C(c1ccc(Cl)cc1)C1(O)CCNC(c2ccc3ccccc3c2)C1 (stereo not drawn) [Compound 459] | 211 °C
59 | COc1nc2ccc(S(C)(=O)=O)cc2cc1C(c1ccc(Cl)cc1)C1(O)CCNC(c2ccc3ccccc3c2)C1 (stereo not drawn) [Compound 460] | 197 °C
60 | COc1nc2ccc(S(C)(=O)=O)cc2cc1C(c1ccc(Cl)cc1)C1(O)CCNC(c2ccc3ccccc3c2)C1 (stereo not drawn) [Compound 461] | 208 °C
61 | COc1nc2ccc(S(C)(=O)=O)cc2cc1C(c1ccc(Cl)cc1)C1(O)CCNC(c2ccc3ccccc3c2)C1 (stereo not drawn) [Compound 462] | 192 °C
62 | COc1nc2ccc(S(C)(=O)=O)cc2cc1C(c1ccc(Cl)cc1)C1(O)CCNC(c2ccc3ccccc3c2)C1 (stereo not drawn) [Compound 463] | 160 °C
63 | COc1nc2ccc(S(C)(=O)=O)cc2cc1C(c1ccc(Cl)cc1)C1(O)CCNC(c2ccc3ccccc3c2)C1 (stereo not drawn) [Compound 464] | 154 °C
64 | COc1nc2ccc(S(C)(=O)=O)cc2cc1C(c1ccc(Cl)cc1)C1(O)CCNC(c2ccc3ccccc3c2)C1 (stereo not drawn) [Compound 465] | 168 °C
65 | COc1nc2ccc(S(C)(=O)=O)cc2cc1C(c1ccc(Cl)cc1)C1(O)CCNC(c2ccc3ccccc3c2)C1 (stereo not drawn) [Compound 466] | 188 °C
66 | COc1nc2ccc(Cl)cc2cc1C(c1ccc(Cl)cc1)C1(O)CCNC(Cc2cccnc2)C1 (stereo not drawn) [Compound 467] | 148 °C
